Earlier results in US20080057111A1 (priority 2006, published 2008).

tested on: not given; conditions: not given

| SMILES | anti-endotoxin activity in vivo |
| --- | --- |
| O=C(O)c1ccccc1 [benzoic acid] | anti-endotoxin activity |
| O=C(O)c1ccccc1O [salicylic acid] | anti-endotoxin activity |
| COc1cc(C(=O)O)cc(OC)c1O [syringic acid] | anti-endotoxin activity |
| Nc1ccccc1C(=O)O [σ-aminobenzoic acid] | anti-endotoxin activity |

tested on: severe acute respiratory syndrome (SARS) virus; conditions: recent report

| SMILES | effect on SARS virus |
| --- | --- |
| C=CCC(=NOS(=O)(=O)O)S[C@@H]1O[C@H](CO)[C@@H](O)[C@H](O)[C@H]1O (stereo in doubt) [sinigrin] | inhibitory effect |
| CC[C@H](CC[C@@H](C)[C@H]1CC[C@H]2[C@@H]3CC=C4C[C@@H](O)CC[C@]4(C)[C@H]3CC[C@]12C)C(C)C [beta-sitosterol] | inhibitory effect |
| O=c1c(-c2ccc(O)cc2)coc2cc(O)ccc12 [daidzein] | inhibitory effect |
| COc1ccc([C@@H]2CC(=O)c3c(O)cc(O)cc3O2)cc1O [hespertin] | inhibitory effect |
| OC[C@H]1O[C@@H](Oc2c[nH]c3ccccc23)[C@H](O)[C@@H](O)[C@@H]1O [indican] | inhibitory effect |
| O=C1/C(=C2\Nc3ccccc3C2=O)Nc2ccccc21 [indigo] | inhibitory effect |
